Patent US20230026277A1, “COMPOSITION FOR PREVENTION, ALLEVIATION, OR TREATMENT OF RESPIRATORY DISEASE” (MICROX CO., LTD., priority 2019, published 2023)

Key:
Format in all cases: in vivo
CK2α protein = assay: Western blot of CK2α protein in lung of asthma-induced mice; conditions: administered daily; 1 or 2 hours after the secondary challenge; FIG. 10
Experimental: (§1) Also, on days 21 and 28 from the experimental starting date, the mice were put into a plastic box (Plexiglas (Rohm & Haas, Philadelphia, Pa.) exposure chamber; 24.5 cm×40.5 cm×15.0 cm), and 1.5% ovalbumin was evaporated using an ultrasonic nebulizer (NE-U12; output 0.8 mL/min; Omron, Japan), and injected into the box for 30 minutes so that the mice inhaled the evaporated ovalbumin (secondary challenge).
A tissue was extracted from each of the mice manufactured in Experimental Method 1, and finely ground to a cell level. Thereafter, the cells were lysed in a cell lysis buffer containing a protease inhibitor to obtain a cell lysate. The cell lysate was centrifuged to obtain protein. Then, an equivalent amount of the proteins obtained from the cells were loaded on an SDS-PAGE gel and electrophoresed. The proteins present in the electrophoresed gel were transferred to a PVDF membrane. The PVDF membrane was washed, and added to a blocking buffer in which 5% skim milk was included in a TBS-T buffer, and incubated at room temperature. Then, the PVDF membrane was incubated at room temperature with an antibody diluted 1:1,000 in a TBS-T buffer containing 3% BSA. […] The PVDF membrane was washed three times with a TBS-T buffer, and visualized and quantified using an ECL Western blotting detection reagent. […]
(§2) Specifically, the secondary challenge (ovalbumin injection) was performed according to the method described above in Experimental Method 1, and the lungs were extracted after an hour, and then measured according to the method described above in Experimental Method 7. […] Also, the level of TNF-α corresponding to an NK-κB-dependent cytokine was measured by ELISA according to the method described above in Experimental Method 4. […]
The secondary challenge (ovalbumin injection) was performed according to the method described above in Experimental Method 1, and the lungs were extracted after 1 or 2 hours, and then measured according to the method described above in Experimental Method 7. […]

[1] = tested on: neutrophils and eosinophils introduced into the airway; assay: Inflammatory cells (neutrophils and eosinophils) in bronchoalveolar lavage fluid, Diff-Quik staining, asthma-induced mice; conditions: asthma-induced mice; for cell numbers of neutrophils and eosinophils: Experiment Result 7, orally administered daily, FIG. 19
Experimental: (§3) Eight-week-old female […] mice (Orient Bio Korea Inc., Korea) having no certain pathogen were accommodated in an aseptic laminar-flow cabinet, and bred by supplying a standard solid feed ad libitum. When the following experiment was performed, the mice were made to correspond to 7- to 8-weeks old, and all laboratory animals were managed according to the protocol approved by the Institutional Animal Care and Use Committee of the Chonbuk National University Medical School.
as §1
(§4) After the mice were anesthetized, a thin tube was inserted into the airway, and a piston process was repeated using a syringe filled with 0.2 mL of physiological saline to obtain a bronchoalveolar lavage fluid. The bronchoalveolar lavage fluid obtained through this piston process was stored at −70° C. when it was not immediately used in the experiments.
50 μL of the bronchoalveolar lavage fluid obtained in Experimental Method 2 was put on a slide used for the cytospin, and centrifuged for 30 minutes. Thereafter, Diff-Quik staining was performed, and inflammatory cells (neutrophils and eosinophils) were observed using a microscope.
Preparation Example 3 (α,δ-NA-L-G) or α,δ N-acetyl-D-glutamine (α,δ-NA-D-G) was orally administered to the asthma-induced mice of Experimental Method 1 daily from the experimental starting date at a concentration of 50, 100, or 200 μg/kg/day, and the cell numbers of neutrophils and eosinophils introduced into the airway through the method of Experimental Method 3 were measured. The results are shown in A and B of FIG. 3. In this case, the cell numbers were measured at 10 hours (neutrophils) or 48 hours (eosinophils) after a secondary challenge.

IL-4, IL-5, and IL-13 = assay: Cytokines in bronchoalveolar lavage fluid by ELISA, asthma-induced mice; conditions: asthma-induced mice; for expression levels of the cytokines (IL-4, IL-5, and IL-13): Experiment Result 7, orally administered daily, FIG. 20
Experimental: as §3, §1, §4
(§5) A level of cytokines in the bronchoalveolar lavage fluid obtained in Experimental Method 2 was measured using an ELISA kit. Here, ELISA kits specifically manufactured for TNF-α, IL-4, IL-5, and IL-13 were used.
Preparation Example 3 (α,δ-NA-L-G) or α,δ N-acetyl-D-glutamine was orally administered to the asthma-induced mice of Experimental Method 1 at a concentration of 100, 200, 400 or 800 μg/kg/day 30 minutes before a secondary airway challenge, and levels of IL-4, IL-5, and IL-13 were measured through the method described above in Experimental Method 4 24 hours after the secondary challenge. The results are shown in A and B of FIG. 4.

asthma-induced mice = assay: Bronchial hypersensitivity reaction (Rrs value, methacholine), asthma-induced mice; conditions: for bronchial hypersensitivity reaction: Experiment Result 7, orally administered daily, FIG. 21
Experimental: as §3, §1
45 mg/kg of sodium pentobarbital was intraperitoneally injected into the mice prepared in Experimental Method 1 to anesthetize the mice, and the airways were cut and an 18 gauge needle was inserted into the airways. Thereafter, the needle was connected to a small-sized animal respirator connected to a computer, and the computer system was adjusted to a respiration rate of 150 breaths per minute. Then, methacholine in the form of aerosol was fed at an increasing concentration of 5.0 to 50 mg/mL so that the mice inhaled the methacholine. Then, an airway response was measured, and indicated as an Rrs value.
Preparation Example 3 (α,δ-NA-L-G) or α,δ N-acetyl-D-glutamine was orally administered to the asthma-induced mice of Experimental Method 1 at a concentration of 200 or 400 μg/kg/day 30 minutes before a secondary airway challenge, and the bronchial hypersensitivity reaction was measured 48 hours after the secondary challenge using the method described in Experimental Method 5. The results are shown in A and B of FIG. 5.

NF-κB and TNF-α = assay: NF-κB (Western blot) and TNF-α (ELISA) in asthma-induced mice; conditions: administered daily
Experimental: as §1, §5
A tissue was extracted from each of the mice manufactured in Experimental Method 1, and finely ground to a cell level. Thereafter, the cells were lysed in a cell lysis buffer containing a protease inhibitor to obtain a cell lysate. The cell lysate was centrifuged to obtain protein. Then, an equivalent amount of the proteins obtained from the cells were loaded on an SDS-PAGE gel and electrophoresed. The proteins present in the electrophoresed gel were transferred to a PVDF membrane. The PVDF membrane was washed, and added to a blocking buffer in which 5% skim milk was included in a TBS-T buffer, and incubated at room temperature. Then, the PVDF membrane was incubated at room temperature with an antibody diluted 1:1,000 in a TBS-T buffer containing 3% BSA. Then, the PVDF membrane was washed with a TBS-T buffer, and incubated at room temperature for an hour with a dilute solution containing HRP-bound IgG. The PVDF membrane was washed three times with a TBS-T buffer, and visualized and quantified using an ECL Western blotting detection reagent.
Here, antibodies specific to elastin, caspase-3, collagen, MKP-1, p-cPLA, p-p38, NF-κB(p65), CK2α, GAPDH, or β-actin were used in the Western blot.
Specifically, the secondary challenge (ovalbumin injection) was performed according to the method described above in Experimental Method 1, and the lungs were extracted after an hour, and then measured according to the method described above in Experimental Method 7. The results are shown in A of FIG. 9. Also, the level of TNF-α corresponding to an NK-κB-dependent cytokine was measured by ELISA according to the method described above in Experimental Method 4. The results are shown in B of FIG. 9. […]
as §2, with “The” for “Specifically, the”, “30 or 60 minutes,” for “an hour,”

Structure (SMILES)	cell numbers of neutrophils and eosinophils [1]	expression levels of the cytokines (IL-4, IL-5, and IL-13) (IL-4, IL-5, and IL-13)	bronchial hypersensitivity reaction (asthma-induced mice)	also measured
Oc1ccc(-c2nc(-c3ccncc3)c(-c3ccc(F)cc3)[nH]2)cc1 [SB202190, reference compound]				level of the CK2α protein (CK2α protein): decreased
COC(=O)[C@H](CCC(=O)NC(C)=O)NC(C)=O [Preparation Example 6]	decreased	decreased	inhibited	
Brc1c(Br)c(Br)c2n[nH]nc2c1Br [inhibitor of the CK2α protein, TBBt, reference compound]				level of the presence of the TNF-α protein (NF-κB and TNF-α; ELISA, FIG. 11B): decreased; level of the NF-κB protein (NF-κB and TNF-α; at 30 and 60 minutes after secondary challenge, FIG. 11): decreased
CC(=O)NC(=O)CC[C@@H](NC(C)=O)C(=O)O [α,δ N-acetyl-D-glutamine, reference compound]				inflow of the neutrophils and eosinophils into the airway ([1]; oral daily 50, 100 or 200 μg/kg/day, neutrophils 10 hours, eosinophils 48 hours after secondary challenge, FIG. 3): not inhibited; levels of the cytokines (IL-4, IL-5, IL-13) (IL-4, IL-5, and IL-13; oral 100, 200, 400 or 800 μg/kg/day, regardless of the concentration, 24 hours after secondary challenge, FIG. 4B): did not inhibit; Rrs value (bronchial hypersensitivity reaction) (asthma-induced mice; oral 200 or 400 μg/kg/day 30 minutes before secondary challenge, 48 hours after, methacholine 5.0 to 50 mg/mL, FIG. 5): did not exhibit an inhibitory effect
CC(=O)NC(=O)CC[C@H](NC(C)=O)C(=O)OCc1ccccc1 [Preparation Example 2, Benzyl 2,5-diacetamido-5-oxopentanoate]	decreased	decreased	inhibited	
CCOC(=O)[C@H](CCC(=O)NC(C)=O)NC(C)=O [Preparation Example 4, Ethyl 2,5-diacetamido-5-oxopentanoate]	decreased	decreased	inhibited	
